Tests used:
Plasmopara viticola [1] = assay: Example 4: preventive 72 h application on vine downy mildew, phosphorous acid / mandipropamid / mefenoxam, TAMMES analysis; type: in vivo
Procedure: (§1) Vine plants (variety Cabernet Sauvignon) were grown in a sandy soil in plastic pots with a single plant per pot.
(§2) Four days before treatment, phosphorous acid was applied at 1,500 g a.i./ha on plants planned to be treated later with phosphorous acid based product alone or in mixture.
(§3) A three days interval separated treatment and inoculation. Three days after the treatment, each plant was inoculated by spraying an aqueous suspension of sporangia of Plasmopara viticola obtained from infected leaves and sensitive to all the tested compounds. The concentration of sporangia was about 100,000 units per ml.
(§4) After contamination the plants were incubated for 7 days at 22° C. in a saturated atmosphere. Seven days after contamination, symptoms were evaluated in terms of the extent of the lower surface of the leaves infected, in comparison with untreated (UTC) but contamined plants.
(§5) The efficacy of the treatment was calculated using the Abbott formula:
(§6) efficacy=(untreated−treated/untreated)×100
(§7) The concentrations of the fungicide active substances alone or in mixture giving % efficacy for each component were determined based on the sigmoid curve dose/response model with their confidence intervals. The analysis of the results was made according to the TAMMES model (Isoboles, a graphic representation of synergism in pesticides, Neth. J. Plant Path. 70 (1964): 73-80).

Plasmopara viticola [2] = assay: Example 3: preventive 72 h application on vine downy mildew, phosphorous acid / mandipropamid / folpet, TAMMES analysis; type: in vivo
Procedure: as §1
The following ratio was tested: phosphorous acid (A)/mandipropamid (B)/folpet (C) respectively: 1,500 g a.i./ha+75 g a.i./ha+750 g a.i./ha (ratio 20/1/10).
The dose range tested for phosphorous acid equivalent (329 g/kg) was: 3,000 g a.i./ha, 1,500 g a.i./ha, 1,000 g a.i./ha, 750 g a.i./ha, 500 g a.i./ha, 250 g a.i./ha, 80 g a.i./ha, 40 g a.i./ha, 20 g a.i./ha, 10 g a.i./ha, 2 g a.i./ha and 0.2 g a.i./ha.
The dose range for mandipropamid+folpet was: 75+750 g a.i./ha, 4+40 g a.i./ha, 2+20 g a.i./ha, 1+10 g a.i./ha, 0.5+5 g a.i./ha, 0.1+1 g a.i./ha and 0.01+0.1 g a.i./ha.
For the ternary mixture phosphorous acid equivalent+mandipropamid+folpet, the dose range studied was: 1,500+75+750 g a.i./ha, 80+4+40 g a.i./ha, 40+2+20 g a.i./ha, 20+1+10 g a.i./ha, 10+0.5+5 g a.i./ha, 2+0.1+1 g a.i./ha and 0.2+0.01+0.1 g a.i./ha.
as §2, §3, §4, §5, §6, §7

[3] = sum of the components, or dose of the single compound, vine, preventive 72 h

## OP(O)O [phosphorous acid]
Plasmopara viticola [1]; Table 2 of Example 4: practical 70% of disease control observed
  ED70: 650 g a.i./ha
Plasmopara viticola [1]; Table 2 of Example 4: practical 90% of disease control observed
  ED90: 1,500 g a.i./ha
Plasmopara viticola [2]; Table 2 of Example 3: calculated according to efficacy observed, 70% of disease control
  ED70: 6.2 g a.i./ha
Plasmopara viticola [2]; Table 2 of Example 3: calculated according to efficacy observed, 90% of disease control
  ED90: 145 g a.i./ha
Plasmopara viticola [2]; [3]
  Practical dose for 70% efficacy, total: 6.2 g a.i./ha
  Practical dose for 90% efficacy, total: 145 g a.i./ha
